Reference: patent US11415579B2, “Assay for measuring a rate of reaction between a target and a ligand candidate” (Imperial College Innovations Ltd., priority 2016, dated 2022)

Experiments:
[1] = biological target: T1, Cdk2(S276C) (C177A) (Homo sapiens, UniProt P24941, C177A/S276C); test: Kinetic thiol consumption assay with Cdk2 mutant S276C; type: binding; parameters: key to Rate enhancement, Cdk2 S276C: rate constant with Cdk2 ÷ rate constant with model thiol (fold); conditions: additional mutation C177A; for Rate constant with Cdk2 S276C: Protein: Cdk2, cysteine position S276C, in h^-1
T1 construct: poly-histidine; made in house; host or cells: E. coli
Method in brief: (§1)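 5 μM thiol, degassed phosphate pH 8, 2% v/v immobilized TCEP beads; 1 h RT; fluorescence ex 380/em 470 nm; normalized vs DMSO/thiol-only; first-order exponential decay fit → rate constant; Cdk2 k / model-thiol k = rate enhancement per acrylamide.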

[2] = biological target: T2, Cdk2(R122C) (C177A) (Homo sapiens, UniProt P24941, C177A/R122C); test: Kinetic thiol consumption assay with Cdk2 mutant R122C; type: binding; parameters: key to Rate enhancement, Cdk2 R122C: rate constant with Cdk2 ÷ rate constant with model thiol (fold); conditions: additional mutation C177A; for Rate constant with Cdk2 R122C: Protein: Cdk2, cysteine position R122C, in h-1
T2 construct: poly-histidine; made in house; host or cells: E. coli
Method in brief: as §1

[3] = biological target: T3, Cdk2(T182C) (C177A) (Homo sapiens, UniProt P24941, C177A/T182C); test: Kinetic thiol consumption assay with Cdk2 mutant T182C; type: binding; parameters: key to Rate enhancement, Cdk2 T182C: rate constant with Cdk2 ÷ rate constant with model thiol (fold); conditions: additional mutation C177A; for Rate constant with Cdk2 T182C: Protein: Cdk2, cysteine position T182C, in h^-1
T3 construct: poly-histidine; made in house; host or cells: E. coli
Method in brief: as §1

[4] = biological target: T4, Cdk2(H71C) (C177A) (Homo sapiens, UniProt P24941, C177A/H71C); test: Kinetic thiol consumption assay with Cdk2 mutant H71C; type: binding; parameters: key to Rate enhancement, Cdk2 H71C: rate constant with Cdk2 ÷ rate constant with model thiol (fold); conditions: additional mutation C177A; for Rate constant with Cdk2 H71C: Protein: Cdk2, cysteine position H71C, in h^-1
T4 construct: poly-histidine; made in house; host or cells: E. coli
Method in brief: as §1

[5] = biological target: T5, Cdk2(N272C) (C177A) (Homo sapiens, UniProt P24941, C177A/N272C); test: Kinetic thiol consumption assay with Cdk2 mutant N272C; type: binding; parameters: key to Rate enhancement, Cdk2 N272: rate constant with Cdk2 ÷ rate constant with model thiol (fold); conditions: for Rate enhancement, Cdk2 N272: Cdk2 N272, additional mutation C177A; for Rate constant with Cdk2 N272C: Protein: Cdk2, cysteine position N272C, additional mutation C177A, in h^-1
T5 construct: poly-histidine; made in house; host or cells: E. coli
Method in brief: as §1

[6] = Kinetic thiol consumption assay with model thiol glutathione; type: physicochemical; parameters: Rate constant with glutathione (k(GSH)): unit not given here; conditions: for Rate constant with glutathione (k(GSH)): 500 μM ligand, 5 μM thiol, phosphate buffer pH 8; for Rate constant with Glutathione: Protein: Glutathione, cysteine position NA, in h-1
Method in brief: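 GSH 5 μM, degassed phosphate buffer pH 8, TCEP beads 2% v/v; acrylamide added; RT, 1 h; fluorescence ex/em 380/470 nm; normalized to DMSO/thiol control; k from first-order exponential decay fit.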

[7] = biological target: T6, human cyclin-dependent kinase 2 (Cdk2) (Homo sapiens, UniProt P24941); test: Kinetic thiol consumption assay with wild type Cdk2 (C177); type: binding; parameters: key to Rate enhancement, Cdk2 WT: k(Cdk2) divided by k(model thiol); Rate constant with Cdk2 (k(Cdk2)): unit not given here; conditions: for Rate constant with Cdk2 (k(Cdk2)): 500 μM ligand, 5 μM thiol, phosphate buffer pH 8; for Rate enhancement, Cdk2 WT: no additional mutations; for Rate constant with Cdk2 WT: Protein: Cdk2, cysteine position WT, in h^-1; for k(Cdk2)/k(Cdk2_mut) rate enhancement: model thiol Cdk2[C177A, F80C, K278C]; for k(Cdk2)/k(GSH) rate enhancement: model thiol glutathione
T6 construct: poly-histidine; made in house; host or cells: E. coli
Method in brief: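 His-tagged human Cdk2 (single surface cysteine C177), expressed in E. coli, or a model thiol at 5 μM in degassed phosphate buffer pH 8 was pre-treated with immobilized TCEP beads (2% v/v) before acrylamide addition. Fluorescence (ex/em 380/470 nm) was read after 1 h at room temperature, normalized to DMSO/thiol-only control and plotted versus time.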

[8] = biological target: T7, Cdk2(C177A, F80C) (Homo sapiens, UniProt P24941, C177A/F80C); test: Kinetic thiol consumption assay with Cdk2 mutant F80C, incl. kobs versus concentration (Kd, k2); type: binding; parameters: key to Rate enhancement, Cdk2 F80C: Cdk2 rate constant divided by model-thiol rate constant; conditions: additional mutation C177A; for Rate constant with Cdk2 F80C: Protein: Cdk2, cysteine position F80C, in h^-1
T7 construct: poly-histidine; made in house; host or cells: E. coli
Method in brief: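 His-tagged Cdk2(C177A/F80C) from E. coli or model thiol, 5 μM in degassed phosphate buffer pH 8 with TCEP beads, reacted with acrylamide ligands; fluorescence (ex/em 380/470 nm) normalized to DMSO control and fitted to first-order decay for kobs. Kd and k2 obtained from hyperbolic fit of kobs versus ligand concentration.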

[9] = biological target: T8, Cdk2[C177A, F80C, K278C] (Homo sapiens, UniProt P24941, C177A/F80C/K278C); test: Kinetic thiol consumption assay with mutant Cdk2 as model thiol; type: binding; parameters: unit not given here; conditions: 500 μM ligand, 5 μM thiol, phosphate buffer pH 8
T8 construct: poly-histidine; made in house; host or cells: E. coli
Method in brief: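 Model thiol: His-tagged human Cdk2 C177A/F80C/K278C (two engineered surface cysteines), E. coli-expressed, 5 μM in degassed phosphate buffer pH 8 with immobilized TCEP beads (2% v/v). Fluorescence (ex/em 380/470 nm) followed over time at room temperature, normalized to DMSO/thiol control. First-order decay fit gives rate constants.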

[10] = biological target: T9, Cdk2(S181C) (C177A) (Homo sapiens, UniProt P24941, C177A/S181C); test: Kinetic thiol consumption assay with Cdk2 mutant S181C; type: binding; parameters: key to Rate enhancement, Cdk2 S181C: rate constant with Cdk2 ÷ rate constant with model thiol (fold); conditions: additional mutation C177A; for Rate constant with Cdk2 S181C: Protein: Cdk2, cysteine position S181C, in h^-1
T9 construct: poly-histidine; made in house; host or cells: E. coli
Method in brief: as §1

Compound	Rate enhancement, Cdk2 S276C [1]	Rate constant with Cdk2 S276C [1]	Rate enhancement, Cdk2 R122C [2]	Rate constant with Cdk2 R122C [2]	Rate enhancement, Cdk2 T182C [3]	Rate constant with Cdk2 T182C [3]	Rate enhancement, Cdk2 H71C [4]	Rate enhancement, Cdk2 N272 [5]	Rate constant with Cdk2 N272C [5]	Rate constant with glutathione (k(GSH)) [6]	Rate constant with Glutathione [6]	Rate constant with Cdk2 (k(Cdk2)) [7]	Rate enhancement, Cdk2 WT [7]	Rate constant with Cdk2 WT [7]	k(Cdk2)/k(Cdk2_mut) rate enhancement [7]	Rate enhancement, Cdk2 F80C [8]	Rate constant with Cdk2 F80C [8]	Rate constant with Cdk2[C177A, F80C, K278C] (k(Cdk2_mut)) [9]	Rate enhancement, Cdk2 S181C [10]	Rate constant with Cdk2 S181C [10]	also measured
C=CC(=O)N1CC2CC2C1 (centres unmarked) [CA-211]	0.4691	0.004395	0.3837	0.003595	2.18	0.02043	0	2.443	0.02289	0.00538	0.00937	0.00368	0.3928	0.003681	2.144	0.2496	0.002339	0.00172	2.498	0.02341	k(Cdk2)/k(GSH) rate enhancement [7]: 0.6839
C=CC(=O)NCc1ccccc1 [CA-009]	0.8186	0.005718	0.5794	0.004047	21.57	0.1507	0.2836	1.318	0.009206		0.006985	0.00446	2.404	0.01679	1.108	0.5029	0.003513	0.00402	0.4707	0.003288	Rate constant with Cdk2 H71C [4]: 0.001981
C=CC(=O)NCc1ccc(F)cc1 [BN-62]	0.7693	0.001184	0.125	0.0001923	0.679	0.001045	2.5393E−11	1.006	0.001549	0.00157	0.001539	0.0019	1.86	0.002863	1.136	0.6901	0.001062	0.00167	1.1306E−11	1.74E−14	Rate constant with Cdk2 H71C [4]: 3.908E−14; k(Cdk2)/k(GSH) rate enhancement [7]: 1.213
C=CC(=O)Nc1cccc(-c2nnnn2C2CC2)c1 [CA-057]	1.606	0.04258	1.176	0.03118	18.51	0.4908	1.636	2.885	0.07649	0.02585	0.02651	0.0716	2.701	0.0716	0.7607	2.139	0.05671	0.09413	1.069	0.02834	Rate constant with Cdk2 H71C [4]: 0.04338; k(Cdk2)/k(GSH) rate enhancement [7]: 2.77
C=CC(=O)N1CCCC2(CCCc3ccccc32)C1 (centres unmarked) [CA-084]	1.079	0.01813	0.2694	0.004528	3.848	0.06469	0.8209	0.06817	0.001146	0.01002	0.01681	0.00872	0.5186	0.008718	1.989	1.811	0.03044	0.00438	0.4258	0.007158	Rate constant with Cdk2 H71C [4]: 0.0138; k(Cdk2)/k(GSH) rate enhancement [7]: 0.8701
C=CC(=O)N1CCCC1c1ccc(OC)cc1 (centres unmarked) [EL-1062]	0.2765	0.0014	0.606	0.003068	5.254	0.0266	0	0.3073	0.001556	0.00509	0.005063	0.00448	1.245	0.006301	0.6762	1.223	0.006191	0.00663	1.564	0.007918	k(Cdk2)/k(GSH) rate enhancement [7]: 0.8802
C=CC(=O)Nc1ccc(C23CC4CC(CC(O)(C4)C2)C3)cc1 [CA-194]	0.7641	0.003434	0.7287	0.003275	10.72	0.04819	0	0.2125	0.0009551	0.00306	0.004494	0.00505	1.123	0.005049	0.3625	0.9911	0.004454	0.01393	0.6985	0.003139	k(Cdk2)/k(GSH) rate enhancement [7]: 1.651
